Literature values in US7858118B2, “Extended release composition containing Tramadol” (Galephar Pharmaceutical Research, Inc., priority 2001, dated 2010).
Where two headings read alike, the source gives them in different places.

Columns and labels:
[1] = animal models
[2] = system: μ-opioid receptors
[3] = after oral administration of immediate release dosage form
[4] = in words
[5] = single 100 mg oral dose, healthy subjects

SMILES | potency relative to Tramadol in producing analgesia [1] | potency relative to Tramadol in u-opioid binding [2] | maximum plasma concentration of the [+]-enantiomer of Tramadol (100 mg dose) | maximum plasma concentration of the [−]-enantiomer of Tramadol (100 mg dose) | maximum plasma concentration of the [−]-M1 enantiomer (100 mg dose of Tramadol, first value of the pair) | maximum plasma concentration of the other M1 enantiomer (not given) (100 mg dose of Tramadol, second value of the pair) | maximum plasma concentration at steady state (100 mg four times daily) | time to steady state (100 mg four times daily) | mean absolute bioavailability (100 mg oral dose) | time to peak plasma concentrations (immediate release, oral (b6)) | plasma half-life (multiple dosing) | effect of food on rate or extent of absorption (oral, immediate release) | mean peak plasma concentration of the active mono-O-desmethyl metabolite (single 100 mg oral dose of Tramadol) | time of peak plasma concentration of the mono-O-desmethyl metabolite (single 100 mg oral dose of Tramadol, post-dose) | mean peak plasma concentration of Tramadol [5] | time of mean peak plasma concentration of Tramadol [5] | plasma half-life (single dosing) | onset of analgesia [3] | solubility in water and body fluids [4]
CN(C)C[C@H]1CCCC[C@]1(O)c1cccc(O)c1 [Example M1, O-desmethyl tramadol] | up to 6 times | 200 times |  |  |  |  |  |  |  |  |  |  |  |  |  |  |  |  | 
COc1cccc(C2(O)CCCCC2CN(C)C)c1 (stereo not shown) [Tramadol] |  |  | 168 ± 36 ng/mL | 148 ± 33 ng/mL | 35 ± 10 ng/mL | 26 ± 13 ng/mL | 592 ± 177 ng/mL | 2 days | ≈ 75% | ≈ 2 hours | 7 h | does not significantly affect | 55 ± 20 ng/mL | ≈ 3 hours | 308 ± 78 ng/mL | ≈ 2 hours | 6 h | ≤ 1 h | extremely high solubility
